Laboratory results published in the supplement of paper PMC11451515.

Legend:
Settings in all cases: 48 h
NOMO1 [1] = experiment: cell viability relative to DMSO control; higher = less cytotoxic
Method in brief: (§1)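 Viability is a per-plate percentage relative to DMSO wells, with cell-free wells as background. CellTiter-Glo One luminescence was read after 48 h at 37°C on 1536-well plates (5 μl) of NOMO1 or SEM (500 cells/well) or P12-Ichikawa (1000 cells/well) leukemia cells. The cells had been adapted for at least four passages in each medium and pin-dosed with library compounds in DMSO from 47 μM to 0.79 nM in 11 threefold steps.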

P12-Ichikawa [2] = experiment: as above
Method in brief: as §1

SEM cells [3] = experiment: as above
Method in brief: as §1

NOMO1 [4] = experiment: AUC of viability dose-response curve (% viability x log10 dose units); higher = less sensitive
Method in brief: (§2)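 In 1536-well plates, leukemia cells adapted to each medium (500 or 1000 cells/well) were exposed for 48 h at 37°C to library compounds in DMSO across 11 threefold doses, 47 μM down to 0.79 nM. Viability was read by CellTiter-Glo One luminescence and normalised per plate to DMSO and cell-free wells. A four-parameter log-logistic fit over log10 doses was integrated by trapezoidal rule. This yielded the area under the curve, with over-full-viability curves scaled and quality-control failures dropped.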

P12-Ichikawa [5] = experiment: as above
Method in brief: as §2

SEM cells [6] = experiment: as above
Method in brief: as §2

Cc1nc2cnc3ccc(C#Cc4cccnc4)cc3c2n1-c1ccc(C(C)(C)C#N)cc1
cell viability [%]
Settings | NOMO1 [1] | P12-Ichikawa [2] | SEM cells [3]
HPLM + 10% dialyzed FBS, 0.000781 µM | 72.6 | 84.7 | 65.5
HPLM + 10% dialyzed FBS, 0.00234 µM | 84.9 | 89.5 | 72.3
HPLM + 10% dialyzed FBS, 0.00702 µM | 82.3 | 86.4 | 84.3
HPLM + 10% dialyzed FBS, 0.0211 µM | 83.2 | 87.4 | 86.5
HPLM + 10% dialyzed FBS, 0.0632 µM | 50.2 | 63.2 | 45.2
HPLM + 10% dialyzed FBS, 0.19 µM | 59.6 | 56 | 43.3
HPLM + 10% dialyzed FBS, 0.569 µM | 38.7 | 58.4 | 28.4
HPLM + 10% dialyzed FBS, 1.71 µM | 44.8 | 53.7 | 34
HPLM + 10% dialyzed FBS, 5.12 µM | 43.3 | 54.2 | 32.3
HPLM + 10% dialyzed FBS, 15.4 µM | 36.3 | 54.4 | 33.2
HPLM + 10% dialyzed FBS, 46.1 µM | 8.48 | 41 | 17
RPMI 5 mM glucose + 10% FBS, 0.000781 µM | 65 | 65.6 | 87.7
RPMI 5 mM glucose + 10% FBS, 0.00234 µM | 78.6 | 84.1 | 104
RPMI 5 mM glucose + 10% FBS, 0.00702 µM | 69.6 | 78.1 | 104
RPMI 5 mM glucose + 10% FBS, 0.0211 µM | 81.1 | 88.3 | 110
RPMI 5 mM glucose + 10% FBS, 0.0632 µM | 61.8 | 49.1 | 56.2
RPMI 5 mM glucose + 10% FBS, 0.19 µM | 62.7 | 43.5 | 60.2
RPMI 5 mM glucose + 10% FBS, 0.569 µM | 32 | 33.5 | 47.8
RPMI 5 mM glucose + 10% FBS, 1.71 µM | 47.1 | 43.7 | 34.2
RPMI 5 mM glucose + 10% FBS, 5.12 µM | 44.1 | 36.5 | 31
RPMI 5 mM glucose + 10% FBS, 15.4 µM | 38.6 | 40.6 | 32.4
RPMI 5 mM glucose + 10% FBS, 46.1 µM | 7.85 | 19.9 | 16.2
RPMI 5 mM glucose + 10% dialyzed FBS, 0.000781 µM | 66.4 | 71.8 | 69.8
RPMI 5 mM glucose + 10% dialyzed FBS, 0.00234 µM | 81.6 | 80.4 | 82.4
RPMI 5 mM glucose + 10% dialyzed FBS, 0.00702 µM | 91.9 | 77 | 84.3
RPMI 5 mM glucose + 10% dialyzed FBS, 0.0211 µM | 84.9 | 89.2 | 78.4
RPMI 5 mM glucose + 10% dialyzed FBS, 0.0632 µM | 56.7 | 53.6 | 50.4
RPMI 5 mM glucose + 10% dialyzed FBS, 0.19 µM | 60.7 | 49.6 | 48.9
RPMI 5 mM glucose + 10% dialyzed FBS, 0.569 µM | 30.4 | 36.4 | 44.2
RPMI 5 mM glucose + 10% dialyzed FBS, 1.71 µM | 48.8 | 36.6 | 37.2
RPMI 5 mM glucose + 10% dialyzed FBS, 5.12 µM | 40.1 | 33.7 | 31.6
RPMI 5 mM glucose + 10% dialyzed FBS, 15.4 µM | 48.4 | 37.6 | 32.7
RPMI 5 mM glucose + 10% dialyzed FBS, 46.1 µM | 9.18 | 24.2 | 15.7

AUC of viability dose-response curve
Settings | HPLM + 10% dialyzed FBS | RPMI 5 mM glucose + 10% FBS | RPMI 5 mM glucose + 10% dialyzed FBS
NOMO1 [4] | 264 | 259 | 268
P12-Ichikawa [5] | 314 | 251 | 255

OC(=O)C/1=C/C(=O)NC(=O)N1
AUC of viability dose-response curve
Settings | NOMO1 [4] | P12-Ichikawa [5] | SEM cells [6]
HPLM + 10% dialyzed FBS | 424 | 455 | 466
RPMI 5 mM glucose + 10% FBS | 450 | 457 | 457
RPMI 5 mM glucose + 10% dialyzed FBS | 437 | 456 | 458

CCN1\C=C(\C(O)=O)C(=O)C2=C1C=C(N3CCNCC3)C(=C2)F
cell viability [%], SEM cells [3]
Settings | HPLM + 10% dialyzed FBS | RPMI 5 mM glucose + 10% dialyzed FBS
0.000781 µM | 95 | 117
0.00234 µM | 130 | 124
0.00702 µM | 125 | 125
0.0211 µM | 136 | 129
0.0632 µM | 116 | 108
0.19 µM | 59.4 | 48.3
0.569 µM | 112 | 114
1.71 µM | 77.9 | 104
5.12 µM | 90.6 | 98
15.4 µM | 59.8 | 101
46.1 µM | 78.8 | 77.8

AUC of viability dose-response curve
Settings | NOMO1 [4] | P12-Ichikawa [5] | SEM cells [6]
HPLM + 10% dialyzed FBS | 430 | 456 | 385
RPMI 5 mM glucose + 10% FBS | 465 | 433 | 392
RPMI 5 mM glucose + 10% dialyzed FBS | 455 | 449 | 404

O=C(/C=C\n1cnc(-c2cc(C(F)(F)F)cc(C(F)(F)F)c2)n1)NNc1cnccn1
AUC of viability dose-response curve
Settings | HPLM + 10% dialyzed FBS | RPMI 5 mM glucose + 10% FBS | RPMI 5 mM glucose + 10% dialyzed FBS
P12-Ichikawa [5] | 302 | 296 | 295
SEM cells [6] | 310 | 301 | 309

ClC1=C[NH]N=C1C\2NC(=N\C3=C2C(=O)CCC3)/NC4=NC5=CC=CC=C5O4 (stereo not given)
AUC of viability dose-response curve
Settings | NOMO1 [4] | P12-Ichikawa [5] | SEM cells [6]
HPLM + 10% dialyzed FBS | 457 | 464 | 460
RPMI 5 mM glucose + 10% FBS | 463 | 453 | 452
RPMI 5 mM glucose + 10% dialyzed FBS | 465 | 455 | 441

CN(C)C(=N)NC(=N)N
SEM cells [3], RPMI 5 mM glucose + 10% FBS
Settings | cell viability [%]
0.000781 µM | 110
0.00234 µM | 122
0.00702 µM | 116
0.0211 µM | 132
0.0632 µM | 152
0.19 µM | 154
0.569 µM | 156
1.71 µM | 110
5.12 µM | 62.4
15.4 µM | 56.6
46.1 µM | 17.8

AUC of viability dose-response curve
Settings | NOMO1 [4] | P12-Ichikawa [5] | SEM cells [6]
HPLM + 10% dialyzed FBS | 437 | 442 | 436
RPMI 5 mM glucose + 10% FBS | 446 | 460 | 393
RPMI 5 mM glucose + 10% dialyzed FBS | 451 | 457 | 426

C[C@]\12CC[C@H](O)CC1=C/C[C@@H]3[C@@H]2CC[C@@]\4(C)[C@H]3C\C=C4C5=CN=CC=C5
AUC of viability dose-response curve
Settings | NOMO1 [4] | P12-Ichikawa [5] | SEM cells [6]
HPLM + 10% dialyzed FBS | 472 | 468 | 469
RPMI 5 mM glucose + 10% FBS | 472 | 460 | 456
RPMI 5 mM glucose + 10% dialyzed FBS | 454 | 459 | 469

C/C=C/C/C=C/CCC(=O)[C@H]1O[C@H]1C(N)=O
cell viability [%], SEM cells [3]
Settings | HPLM + 10% dialyzed FBS | RPMI 5 mM glucose + 10% FBS
0.000781 µM | 105 | 106
0.00234 µM | 107 | 117
0.00702 µM | 118 | 132
0.0211 µM | 123 | 110
0.0632 µM | 117 | 121
0.19 µM | 126 | 120
0.569 µM | 109 | 132
1.71 µM | 124 | 111
5.12 µM | 113 | 128
15.4 µM | 112 | 118
46.1 µM | 71.5 | 55.3

AUC of viability dose-response curve
Settings | NOMO1 [4] | P12-Ichikawa [5] | SEM cells [6]
HPLM + 10% dialyzed FBS | 457 | 470 | 466
RPMI 5 mM glucose + 10% FBS | 458 | 473 | 464
RPMI 5 mM glucose + 10% dialyzed FBS | 476 | 469 | 464

CCNC(=O)C[C@H]1/N=C(/C2=CC=C(Cl)C=C2)C3=CC(=CC=C3[N]4C(=NN=C14)C)OC
SEM cells [3], RPMI 5 mM glucose + 10% dialyzed FBS
Settings | cell viability [%]
0.000781 µM | 122
0.00234 µM | 124
0.00702 µM | 138
0.0211 µM | 119
0.0632 µM | 141
0.19 µM | 117
0.569 µM | 155
1.71 µM | 122
5.12 µM | 108
15.4 µM | 99.4
46.1 µM | 22.2

AUC of viability dose-response curve
Settings | NOMO1 [4] | P12-Ichikawa [5] | SEM cells [6]
HPLM + 10% dialyzed FBS | 465 | 464 | 442
RPMI 5 mM glucose + 10% FBS | 461 | 460 | 450
RPMI 5 mM glucose + 10% dialyzed FBS | 445 | 462 | 440
